Patent publication US8163793B2, “Proline derivatives” (Hoffman-La Roche Inc., priority 2009, dated 2012)
Where a name gives a salt, the structure may show the parent alone.

Tests used:
[1] = target: Cathepsin S (UniProt P25774); test: Cathepsin enzyme inhibition assay (fluorogenic peptide substrate Z-Val-Val-Arg-AMC), Cathepsin S; assay type: biochemical, human and mouse; details: enzyme 1 nM, substrate 20 μM, pH 6.5; read-out: CatS IC50
Procedure, shortened: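 Human or mouse cathepsin S (1 nM) was run in 100 mM potassium phosphate pH 6.5 with 5 mM EDTA, 0.001% Triton X-100 and 5 mM DTT. The rise in AMC fluorescence from cleavage was measured, and IC50 values were calculated by standard methods and expressed in μM.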

[2] = target: Cat L (UniProt P07711); test: Cathepsin enzyme inhibition assay (fluorogenic peptide substrate Z-Val-Val-Arg-AMC), Cathepsin L; assay type: biochemical, human and mouse; details: enzyme 1 nM, substrate 20 μM, pH 6.5; read-out: CatL IC50
Procedure, shortened: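 Cathepsin L at 1 nM was mixed with compound, then started with 20 μM Z-Val-Val-Arg-AMC in pH 6.5 potassium phosphate with EDTA, Triton X-100 and 5 mM DTT. AMC fluorescence (ex 360/em 465 nm) was followed over 20 min. IC50 is given in μM.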

IC50 [1] [nM] | IC50 [2] [nM] | Compound
9.7 | 28200 | N#CC1(NC(=O)[C@@H]2C[C@@H](S(=O)(=O)c3ccc(F)cc3Cl)CN2)CC1 [Example 144, (2S,4R)-4-(2-Chloro-4-fluoro-benzenesulfonyl)-pyrrolidine-2-carboxylic acid (1-cyano-cyclopropyl)-amide]
0.7 | 14000 | CC(C)(C)C(=O)N1C[C@H](S(=O)(=O)c2ccccc2Cl)C[C@H]1C(=O)NC1(C#N)CC1 [Example 217, (2S,4R)-4-(2-Chloro-benzenesulfonyl)-1-(2,2-dimethyl-propionyl)-pyrrolidine-2-carboxylic Acid (1-cyano-cyclopropyl)-amide]
150 | ≥ 25000 | Cc1cc(N2C[C@H](S(=O)(=O)c3ccccc3C(F)(F)F)C[C@@H]2C(=O)NC2(C#N)CC2)n(CC(C)C)n1 [Example 341, (2R,4R)-1-(2-Isobutyl-5-methyl-2H-pyrazol-3-yl)-4-(2-trifluoromethyl-benzenesulfonyl)-pyrrolidine-2-carboxylic acid (1-cyano-cyclopropyl)-amide]
41 | 61700 | N#CC1(NC(=O)[C@@H]2C[C@@H](S(=O)(=O)c3ccccc3Cl)CN2CC(F)(F)C(F)(F)F)CC1 [Example 92, (2S,4R)-4-(2-Chloro-benzenesulfonyl)-1-(2,2,3,3,3-pentafluoro-propyl)-pyrrolidine-2-carboxylic acid (1-cyano-cyclopropyl)-amide]
46.5 | ≥ 25000 | N#CC1(NC(=O)[C@@H]2C[C@@H](S(=O)(=O)c3ccccc3OC(F)(F)F)CN2)CC1 [Example 13, (2S,4R)-4-(2-Trifluoromethoxy-benzenesulfonyl)-pyrrolidine-2-carboxylic acid (1-cyano-cyclopropyl)-amide Hydrochloride]
208 | ≥ 25000 | N#CC1(NC(=O)[C@@H]2C[C@@H](S(=O)(=O)c3ccccc3Cl)CN2)CCCCC1 [Example 46, (2S,4R)-4-(2-Chloro-benzenesulfonyl)-pyrrolidine-2-carboxylic acid (1-cyano-cyclohexyl)-amide Hydrochloride]
15.3 | 14800 | C[C@H](Oc1ccc(S(=O)(=O)[C@H]2CN[C@H](C(=O)NC3(C#N)CC3)C2)c(Cl)c1)C(F)(F)F [Example 230, (2S,4R)-4-[2-Chloro-4-((S)-2,2,2-trifluoro-1-methyl-ethoxy)-benzenesulfonyl]-pyrrolidine-2-carboxylic acid (1-cyano-cyclopropyl)-amide]
4.5 | 4920 | N#CC1(NC(=O)[C@@H]2C[C@@H](S(=O)(=O)c3ccc(Cl)cc3Cl)CN2)CC1 [Example 15, (2S,4R)-4-(2,4-Dichloro-benzenesulfonyl)-pyrrolidine-2-carboxylic acid (1-cyano-cyclopropyl)-amide Hydrochloride]
0.8 | 40800 | CN1CCN(c2ccc(S(=O)(=O)[C@H]3CN[C@H](C(=O)NC4(C#N)CC4)C3)c(C(F)(F)F)c2)CC1 [Example 21, (2S,4R)-4-[4-(4-Methyl-piperazin-1-yl)-2-trifluoromethyl-benzenesulfonyl]-pyrrolidine-2-carboxylic acid (1-cyano-cyclopropyl)-amide hydrochloride]
0.4 | 14600 | CC(C)C(=O)N1C[C@H](S(=O)(=O)c2ccccc2Cl)C[C@H]1C(=O)NC1(C#N)CC1 [Example 218, (2S,4R)-4-(2-Chloro-benzenesulfonyl)-1-isobutyryl-pyrrolidine-2-carboxylic acid (1-cyano-cyclopropyl)-amide]
3.3 | 30300 | N#CC1(NC(=O)[C@@H]2C[C@@H](S(=O)(=O)c3ccc(Br)cc3C(F)(F)F)CN2)CC1 [Example 18, (2S,4R)-4-(4-Bromo-2-trifluoromethyl-benzenesulfonyl)-pyrrolidine-2-carboxylic acid (1-cyano-cyclopropyl)-amide hydrochloride]

More lines, now with the values behind:

Compound | IC50 [1] [nM] | IC50 [2] [nM]
CC(C)(C(=O)N1C[C@H](S(=O)(=O)c2ccccc2Cl)C[C@H]1C(=O)NC1(C#N)CC1)c1ccc(Cl)cc1 [Example 282, (2S,4R)-4-(2-Chloro-benzenesulfonyl)-1-[2-(4-chloro-phenyl)-2-methyl-propionyl]pyrrolidine-2-carboxylic acid (1-cyano-cyclopropyl)-amide] | 0.24 | 270
N#CC1(NC(=O)[C@@H]2C[C@@H](S(=O)(=O)c3ccc(OCC(F)(F)F)cc3Cl)CN2C(=O)C2(c3ccc(C(F)(F)F)cc3)CC2)CC1 [Example 310, (2S,4R)-4-[2-Chloro-4-(2,2,2-trifluoro-ethoxy)-benzenesulfonyl]-1-[1-(4-trifluoromethyl-phenyl)-cyclopropanecarbonyl]-pyrrolidine-2-carboxylic acid (1-cyano-cyclopropyl)-amide] | 0.26 | 220
N#CCNC(=O)[C@@H]1C[C@@H](S(=O)(=O)c2ccccc2C(F)(F)F)CN1C(=O)c1ccncc1 [Example 69, (2S,4R)-1-(Pyridine-4-carbonyl)-4-(2-trifluoromethyl-benzenesulfonyl)-pyrrolidine-2-carboxylic acid cyanomethyl-amide] | 0.4 | ≥ 25000
Cc1cc(N2C[C@H](S(=O)(=O)c3ccccc3C(F)(F)F)C[C@H]2C(=O)NC2(C#N)CC2)n(C2CCC2)n1 [Example 322, (2S,4R)-1-(2-Cyclobutyl-5-methyl-2H-pyrazol-3-yl)-4-(2-trifluoromethyl-benzenesulfonyl)-pyrrolidine-2-carboxylic acid (1-cyano-cyclopropyl)-amide] | 0.3 | 28500
CC(C)(C)C(=O)N1C[C@H](S(=O)(=O)c2ccc(Cl)cc2Cl)C[C@H]1C(=O)NC1(C#N)CC1 [Example 225, (2S,4R)-4-(2,4-Dichloro-benzenesulfonyl)-1-(2,2-dimethyl-propionyl)-pyrrolidine-2-carboxylic Acid (1-cyano-cyclopropyl)-amide] | 1.2 | 18300
CC(C)(C)OC(=O)N[C@@H](C(=O)N1C[C@H](S(=O)(=O)c2ccccc2Cl)C[C@H]1C(=O)NC1(C#N)CC1)c1ccc(Cl)cc1 [Example 412, [(R)-2-[(2S,4R)-4-(2-Chloro-benzenesulfonyl)-2-(1-cyano-cyclopropylcarbamoyl)-pyrrolidin-1-yl]-1-(4-chloro-phenyl)-2-oxo-ethyl]-carbamic Acid Tert-butyl ester] | 2.75 | 785
N#CC1(NC(=O)[C@@H]2C[C@@H](S(=O)(=O)c3ccc(Cl)cc3Cl)CN2C(=O)C2(C(F)(F)F)CC2)CC1 [Example 168, (2S,4R)-4-(2,4-Dichloro-benzenesulfonyl)-1-(1-trifluoromethyl-cyclopropanecarbonyl)-pyrrolidine-2-carboxylic acid (1-cyano-cyclopropyl)-amide] | 0.6 | 8800
N#CC1(NC(=O)[C@H]2C[C@@H](S(=O)(=O)c3ccc(-n4cccn4)cc3Cl)CN2C(=O)C2(C(F)(F)F)CC2)CC1 [Example 165, (2R,4R)-4-(2-Chloro-4-pyrazol-1-yl-benzenesulfonyl)-1-(1-trifluoromethyl-cyclopropanecarbonyl)-pyrrolidine-2-carboxylic acid (1-cyano-cyclopropyl)-amide] | 110 | ≥ 25000
Cc1cc(N2C[C@H](S(=O)(=O)c3ccc(OCC(F)(F)F)cc3C(F)(F)F)C[C@H]2C(=O)NC2(C#N)CC2)n(-c2ccc(C(F)(F)F)cc2)n1 [Example 306, (2S,4R)-1-[5-Methyl-2-(4-trifluoromethyl-phenyl)-2H-pyrazol-3-yl]-4-[4-(2,2,2-trifluoro-ethoxy)-2-trifluoromethyl-benzenesulfonyl]-pyrrolidine-2-carboxylic acid (1-cyano-cyclopropyl)-amide] | 0.555 | 64500
N#CC1(NC(=O)[C@@H]2C[C@@H](S(=O)(=O)c3ccccc3Cl)CN2C(=O)C2(c3cccc(Cl)c3)CC2)CC1 [Example 428, (2S,4R)-1-(1-(3-chlorophenyl)cyclopropanecarbonyl)-4-(2-chlorophenylsulfonyl)-N-(1-cyanocyclopropyl)pyrrolidine-2-carboxamide] | 0.415 | 335
CC(C#N)(NC(=O)[C@@H]1C[C@@H](S(=O)(=O)c2ccccc2Cl)CN1)c1ccccc1 (stereo partly drawn) [Example 48, (2S,4R)-4-(2-Chloro-benzenesulfonyl)-pyrrolidine-2-carboxylic acid (cyano-methyl-phenyl-methyl)-amide Hydrochloride] | 235 | ≥ 25000
N#CCNC(=O)C12CC(S(=O)(=O)c3ccccc3)CN1CC(F)(F)C2 (centres unmarked) [Example 115, 6-Benzenesulfonyl-2,2-difluoro-tetrahydro-pyrrolizine-7a-carboxylic acid cyanomethyl-amide] | 48 | 3470
CN1CCN(c2ccc(S(=O)(=O)[C@@H]3C[C@@H](C(=O)NC4(C#N)CC4)N(C(=O)C4(C)CC4)C3)c(C(F)(F)F)c2)CC1 [Example 272, (2S,4R)-1-(1-Methyl-cyclopropanecarbonyl)-4-[4-(4-methyl-piperazin-1-yl)-2-trifluoromethyl-benzenesulfonyl]-pyrrolidine-2-carboxylic acid (1-cyano-cyclopropyl)-amide] | 0.6 | 17100
CC1(C(=O)N2C[C@H](S(=O)(=O)CC3CC3)C[C@H]2C(=O)NC2(C#N)CC2)CC1 [Example 454, (2S,4R)-4-Cyclopropylmethanesulfonyl-1-(1-methyl-cyclopropanecarbonyl)-pyrrolidine-2-carboxylic acid (1-cyano-cyclopropyl)-amide] | 1660 | ≥ 25000
